Structures are written as SMILES. Where only a bound is given, the exact number is not on record here.

In the assay the target is T1, USP25 (USP25-His6, Boston Biochem E-546) (Homo sapiens, UniProt Q9UHP3).
T1 construct: His6; purchased Boston Biochem E-546
T1 sequence (Q9UHP3 1-1055): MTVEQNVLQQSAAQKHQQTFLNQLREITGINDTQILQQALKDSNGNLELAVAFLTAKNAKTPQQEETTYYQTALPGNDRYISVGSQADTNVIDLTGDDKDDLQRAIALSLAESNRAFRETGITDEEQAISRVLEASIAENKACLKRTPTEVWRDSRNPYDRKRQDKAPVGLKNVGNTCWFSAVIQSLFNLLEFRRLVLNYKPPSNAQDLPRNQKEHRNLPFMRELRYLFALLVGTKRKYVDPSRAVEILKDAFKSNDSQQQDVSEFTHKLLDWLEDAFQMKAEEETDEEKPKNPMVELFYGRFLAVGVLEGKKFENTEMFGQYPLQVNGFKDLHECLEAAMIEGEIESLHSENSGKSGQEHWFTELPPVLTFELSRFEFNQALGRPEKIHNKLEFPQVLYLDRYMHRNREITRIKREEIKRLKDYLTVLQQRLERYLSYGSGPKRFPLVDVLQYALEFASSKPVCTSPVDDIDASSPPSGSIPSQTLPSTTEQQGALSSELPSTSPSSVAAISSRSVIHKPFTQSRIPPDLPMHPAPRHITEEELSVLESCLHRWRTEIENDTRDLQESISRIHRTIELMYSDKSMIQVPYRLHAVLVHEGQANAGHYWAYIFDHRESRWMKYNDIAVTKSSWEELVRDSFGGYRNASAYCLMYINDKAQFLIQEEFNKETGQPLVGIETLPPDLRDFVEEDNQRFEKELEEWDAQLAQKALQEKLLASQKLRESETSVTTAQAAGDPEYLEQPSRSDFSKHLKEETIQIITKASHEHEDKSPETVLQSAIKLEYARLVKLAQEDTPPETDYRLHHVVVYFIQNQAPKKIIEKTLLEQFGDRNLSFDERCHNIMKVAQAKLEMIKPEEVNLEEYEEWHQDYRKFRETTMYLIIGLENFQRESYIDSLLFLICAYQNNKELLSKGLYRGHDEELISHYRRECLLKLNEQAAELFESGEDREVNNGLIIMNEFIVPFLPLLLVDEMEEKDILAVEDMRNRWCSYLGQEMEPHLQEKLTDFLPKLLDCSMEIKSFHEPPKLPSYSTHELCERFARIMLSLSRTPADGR
Kind of assay: Ubiquitin-Rhodamine 110 Assay for USP25 Activity, Example A-2. The conditions noted are these: Ubiquitin-Rhodamine 110 assay, Example A-2; read-out: USP25 A-2 IC50 range. The format is biochemical. In short, it runs like this: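 Read-out: Rh110 fluorescence (ex 485, em 535 nm) after 45 min RT turnover of 25 nM Ub-Rh110 by 75 pM USP25-His6, quenched with 10 mM citric acid. Compounds at 25 μM–1.3 nM, preincubated 30 min with enzyme. IC50 from 4-parameter logistic fit.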
As to `Cc1ccc2c(N)c(C(=O)N[C@@H]3CCc4nc(N5CCNCC5)ccc4C3)sc2n1` (single isomer, unassigned) [Example 23-8], the IC50 (commonly the concentration that inhibits the measured activity by half) was above 2000 nM.
For `Cc1ccc2c(N)c(C(=O)N[C@H]3COc4c(F)c(N5CC6CNCC(C5)O6)cc(F)c4C3)sc2n1` [Example 78, N-((3R)-7-(9-oxa-3,7-diazabicyclo[3.3.1]nonan-3-yl)-5,8-difluorochroman-3-yl)-3-amino-6-methylthieno[2,3-b]pyridine-2-carboxamide], the IC50 lay within 1 to 50 nM.
The figure for `CO[C@H]1CN(c2ccc3c(c2F)OC[C@H](NC(=O)c2sc4nc(C)ccc4c2N)C3)C[C@@H]1N` [Example 92, 3-amino-N-[(3R)-7-[(3S,4S)-3-amino-4-methoxypyrrolidin-1-yl]-8-fluoro-3,4-dihydro-2H-1-benzopyran-3-yl]-6-methylthieno[2,3-b]pyridine-2-carboxamide] is 200 to 2000 nM; for `Cc1ccc2c(N)c(C(=O)N[C@H]3CCc4nc(N5CCN[C@@H](C)C5)ccc4C3)sc2n1` (single isomer, unassigned) [Example 23-15] it is 200 to 2000 nM.
The value for `Nc1c(C(=O)N[C@H]2COc3cc(N4CCNCC4)ccc3C2)sc2nc(C3CC3)sc12` [Example 45] was 200 to 2000 nM.
The value for `Cc1ccc2c(N)c(C(=O)N[C@H]3COc4cc([C@H]5CCNC[C@H]5O)ccc4C3)sc2n1` [Example 62, 3-amino-N-((R)-7-((3S,4R)-3-hydroxypiperidin-4-yl)chroman-3-yl)-6-methylthieno[2,3-b]pyridine-2-carboxamide] was 1 to 50 nM.
As for `Cc1cc(C(F)F)c2c(N)c(C(=O)N[C@H]3COc4cc(N5CC6CNCC(C5)O6)ccc4C3)sc2n1` [Example 88, N-((3R)-7-(9-oxa-3,7-diazabicyclo[3.3.1]nonan-3-yl)chroman-3-yl)-3-amino-4-(difluoromethyl)-6-methylthieno[2,3-b]pyridine-2-carboxamide], the IC50 fell in the range of 1 to 50 nM.
For the compound `Cc1ccc2c(N)c(C(=O)N[C@H]3COc4cc(N5C[C@H]6CNC[C@@H]6C5)ccc4C3)sc2n1` [Example 43, 3-amino-N-((R)-7-((3aR,6aR)-hexahydropyrrolo[3,4-c]pyrrol-2(1H)-yl)chroman-3-yl)-6-methylthieno[2,3-b]pyridine-2-carboxamide], the IC50 was above 2000 nM.
The value for `O=C(N[C@H]1COc2cc(N3CC4CCC(C3)N4)ccc2C1)c1cnc2c(c1)CCCN2` [Example 50, N-((3R)-7-(3,8-diazabicyclo[3.2.1]octan-3-yl)chroman-3-yl)-5,6,7,8-tetrahydro-1,8-naphthyridine-3-carboxamide] was 200 to 2000 nM; that for `O=C(N[C@@H]1COc2cc(N3CCNCC3)ccc2C1)c1cnc2c(ccn2C(F)F)c1` [Example 39, (S)-1-(difluoromethyl)-N-(7-(piperazin-1-yl)chroman-3-yl)-1H-pyrrolo[2,3-b]pyridine-5-carboxamide] was above 2000 nM.
Consider `Cc1ccc2c(N)c(C(=O)N[C@H]3COc4cc([C@@H]5CCNC[C@H]5F)ccc4C3)sc2n1` [Example 81, 3-amino-N-((R)-7-((3S,4S)-3-fluoropiperidin-4-yl)chroman-3-yl)-6-methylthieno[2,3-b]pyridine-2-carboxamide], for which the IC50 lay in the range of 50 to 200 nM.
The value for `O=C(N[C@H]1COc2cc(N3CC4CCC(C3)N4)ccc2C1)c1cnc2c(c1)CCCO2` [Example 51, N-((3R)-7-(3,8-diazabicyclo[3.2.1]octan-3-yl)chroman-3-yl)-3,4-dihydro-2H-pyrano[2,3-b]pyridine-6-carboxamide] was above 2000 nM; that for `COC[C@H]1CN(c2ccc3c(n2)CC[C@H](NC(=O)c2sc4nc(C)ccc4c2N)C3)C[C@H]1N` (single isomer, unassigned) [Example 24-2] was 200 to 2000 nM.
In the case of `Cc1ccc2c(N)c(C(=O)N[C@H]3CCc4nc(N5CC6CCC(C5)N6)ccc4C3)sc2n1` [Example 23-12, 3-amino-N-[(6S)-2-{3,8-diazabicyclo[3.2.1]octan-3-yl}-5,6,7,8-tetrahydroquinolin-6-yl]-6-methylthieno[2,3-b]pyridine-2-carboxamide], the 50% inhibitory concentration (IC50) lay within 200 to 2000 nM.
The value for `CO[C@H]1CN(c2cc(F)c3c(c2F)OC[C@H](NC(=O)c2sc4nc(C)ccc4c2N)C3)C[C@@H]1N` [Example 87, 3-amino-N-((R)-7-((3S,4S)-3-amino-4-methoxypyrrolidin-1-yl)-5,8-difluorochroman-3-yl)-6-methylthieno[2,3-b]pyridine-2-carboxamide] was 200 to 2000 nM; that for `Cc1ccc2c(N)c(C(=O)N[C@H]3COc4cc(N5CCNCC5)c(F)c(F)c4C3)sc2n1` [Example 61, (R)-3-amino-N-(5,6-difluoro-7-(piperazin-1-yl)chroman-3-yl)-6-methylthieno[2,3-b]pyridine-2-carboxamide] was 50 to 200 nM.
The value for `O=C(N[C@H]1COc2cc(N3CCNCC3)ccc2C1)c1ccc(NCc2ccccc2)nc1` [Example 52, (R)-6-(benzylamino)-N-(7-(piperazin-1-yl)chroman-3-yl)nicotinamide] was 200 to 2000 nM.
The figure for `C[C@@H]1CCc2cc(C(=O)N[C@H]3COc4cc(N5CC6CCC(C5)N6)ccc4C3)cnc2N1` [Example 74, (7R)-N-((3R)-7-(3,8-diazabicyclo[3.2.1]octan-3-yl)chroman-3-yl)-7-methyl-5,6,7,8-tetrahydro-1,8-naphthyridine-3-carboxamide] is 200 to 2000 nM; for `Cc1ccc2c(N)c(C(=O)N[C@H]3COc4cc([C@@H]5CCNC[C@H]5O)ccc4C3)sc2n1` [Example 65, 3-amino-N-((R)-7-((3S,4S)-3-hydroxypiperidin-4-yl)chroman-3-yl)-6-methylthieno[2,3-b]pyridine-2-carboxamide] it is 50 to 200 nM.
Consider `O=C(N[C@H]1COc2c(F)c(N3CC4CCC(C3)N4)cc(F)c2C1)c1cnc2c(c1)[C@H]1C[C@H]1CN2` [Example 90, (1aR,7bS)-N-((3R)-7-(3,8-diazabicyclo[3.2.1]octan-3-yl)-5,8-difluorochroman-3-yl)-1a,2,3,7b-tetrahydro-1H-cyclopropa[c][1,8]naphthyridine-6-carboxamide], for which the IC50 was in the range of 200 to 2000 nM.
The value for `Cc1ccc2c(N)c(C(=O)N[C@H]3COc4cc([C@@H]5CCNCC5(F)F)ccc4C3)sc2n1` [Example 70, 3-amino-N-((R)-7-((S)-3,3-difluoropiperidin-4-yl)chroman-3-yl)-6-methylthieno[2,3-b]pyridine-2-carboxamide] was 1 to 50 nM; that for `Cc1ccc2c(N)c(C(=O)N[C@H]3COc4cc([C@@H]5CCNC[C@@H]5F)ccc4C3)sc2n1` [Example 83, 3-amino-N-((R)-7-((3R,4S)-3-fluoropiperidin-4-yl)chroman-3-yl)-6-methylthieno[2,3-b]pyridine-2-carboxamide] was 50 to 200 nM; that for `Cc1ccc2c(N)c(C(=O)N[C@H]3COc4c(F)c(N5CCNCC5)c(F)c(F)c4C3)sc2n1` [Example 35, 3-amino-6-methyl-N-[(3R)-5,6,8-trifluoro-7-(piperazin-1-yl)-3,4-dihydro-2H-1-benzopyran-3-yl]thieno[2,3-b]pyridine-2-carboxamide] was 50 to 200 nM.
The figure for `Cc1ccc2c(N)c(C(=O)N[C@H]3COc4c(F)c(N5CCNCC5)cc(F)c4C3)sc2n1` [Example 55, (R)-3-amino-N-(5,8-difluoro-7-(piperazin-1-yl)chroman-3-yl)-6-methylthieno[2,3-b]pyridine-2-carboxamide] is 50 to 200 nM.
The value for `C[C@H](Nc1ccc(C(=O)N[C@H]2COc3cc(N4CCNCC4)ccc3C2)cn1)c1ccccc1` [Example 53, 6-(((S)-1-phenylethyl)amino)-N-((R)-7-(piperazin-1-yl)chroman-3-yl)nicotinamide] was above 2000 nM.
As for `Cc1cnc2c(N)c(C(=O)N[C@H]3COc4cc(N5CC6CCC(C5)N6)c(F)cc4C3)sc2n1` (single isomer, unassigned) [Example 40], the concentration for half-maximal inhibition (IC50) was in the range of 50 to 200 nM.
The figure for `Cc1ccc2c(N)c(C(=O)N[C@H]3COc4c(F)c(N5CCNCC5)cc(F)c4C3)oc2n1` [Example 68, (R)-3-amino-N-(5,8-difluoro-7-(piperazin-1-yl)chroman-3-yl)-6-methylfuro[2,3-b]pyridine-2-carboxamide] is above 2000 nM.

The record behind these values is patent publication US11524966B1 (Valo Early Discovery, Inc., priority 2017, dated 2022).
